Experimental findings from ChEMBL document CHEMBL1201862, “PubChem BioAssay data set” (2004) are described below.

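The compound was tested at five concentrations on cells cultured in 96-well plates, with a 48-hour exposure period. Abbreviation: GI50, concentration required for 50% inhibition of growth.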 Active and inactive are the calls of the source. Cut-off read from the data, not from the text of the source: active = GI50 up to about 1.1 µM and inactive = higher. A value given as a limit tells only on which side of the number the result lay.

Test in all cases: inhibition of tumour cell growth, NCI panel, 48 h
In experiment [1] the test system is HOP-62.
Experiment [2] has as its system NCI-H522.
In experiment [3] the test system is OVCAR-4.
Experiment [4] deals with UACC-62.
The subject of experiment [5] is Malme-3M.
Experiment [6] concerns CAKI-1.
The test system of experiment [7] is T47D.
Experiment [8] relates to SNB-19.
In experiment [9] the test system is LOX IMVI.
For experiment [10], the system named is SNB-75.
Experiment [11] has as its system OVCAR-5.
In experiment [12] the test system is PC-3.
Experiment [13] concerns MDA-MB-231.
In experiment [14] the test system is A549.
For experiment [15], the system named is U-251.
Experiment [16] deals with DU-145.
Experiment [17] relates to COLO 205.
In experiment [18] the test system is MCF7.
For experiment [19], the system named is OVCAR-3.

In the case of `O=C(O)CCC1COc2ccccc2O1` (stereo not given), the GI50 in [1], in experiment [2], in experiment [3], in experiment [4], in experiment [5] and in experiment [6] was > 10 µM (inactive) each time. In addition, the GI50 in experiment [7], in [8], in [9], in experiment [10], in experiment [11] and in experiment [12] was > 10 µM (inactive) each time. Also, the GI50 in experiment [13], in experiment [14], in [15], in experiment [16], in [17] and in [18] was > 10 µM (inactive) throughout. The GI50 in experiment [19] is > 10 µM (inactive).

For the molecule `C=C1CC(COc2cc(=O)oc3ccccc23)(c2ccccc2)OC1=O` (stereo not given), the GI50 in experiment [1] is 8.53 µM (inactive); in [2], 1.56 µM (inactive); in experiment [3], 2.12 µM (inactive); in [4] it was 1.41 µM (inactive); in experiment [5], 1.33 µM (inactive); in [6] it was 1.3 µM (inactive). The GI50 in experiment [7] was 2.25 µM (inactive); in [8], 16.4 µM (inactive); in experiment [9] it was 1.45 µM (inactive); in experiment [10] it was 4.25 µM (inactive); in experiment [11], 8.07 µM (inactive); in experiment [12] it was 1.95 µM (inactive). The GI50 in experiment [13] was 3.61 µM (inactive); in [14] it was 11.2 µM (inactive); in experiment [15], 9.4 µM (inactive); in experiment [16] it was 2.44 µM (inactive); in experiment [17] it was 1.51 µM (inactive); in [18], 0.413 µM (active). In addition, the GI50 in experiment [19] was 1.37 µM (inactive).

With `COc1ccc(-c2nc3c(C(=O)NCCN(C)C)cccc3c3ccccc23)cc1`, the GI50 in [1] was 3.06 µM (inactive); in [2], 2.65 µM (inactive); in experiment [3], 2.81 µM (inactive); in experiment [4], 1.83 µM (inactive); in experiment [5], 4.3 µM (inactive); in experiment [6], 1.71 µM (inactive). Further, the GI50 in experiment [7] is 8.99 µM (inactive); in experiment [8] it was 3.42 µM (inactive); in [9], 1.5 µM (inactive); in [10], 5.13 µM (inactive); in [11] it was 3.95 µM (inactive); in experiment [12], 3.73 µM (inactive). The GI50 in experiment [13] is 3.45 µM (inactive); in experiment [14], 3.1 µM (inactive); in experiment [15], 2.86 µM (inactive); in experiment [16] it was 4.65 µM (inactive); in experiment [17], 1.99 µM (inactive); in experiment [18], 2.46 µM (inactive). In addition, in experiment [19], the GI50 was 4.57 µM (inactive).

Take `Nc1nc(Cl)c2ncn(Cc3cccc(CCl)c3)c2n1`: the GI50 in [1] was 2.84 µM (inactive); in experiment [2], 2.4 µM (inactive); in experiment [3], 2.13 µM (inactive); in [4] it was 4.16 µM (inactive); in experiment [5], 5.81 µM (inactive); in experiment [6], 1.23 µM (inactive). Further, the GI50 in experiment [7] is 7.36 µM (inactive); in experiment [8], 5.89 µM (inactive); in experiment [9], 3.33 µM (inactive); in experiment [10], 9.75 µM (inactive); in [11], 9.16 µM (inactive); in [12] it was 10.2 µM (inactive). In addition, the GI50 in experiment [13] was 11 µM (inactive); in [14], 13.2 µM (inactive); in [15] it was 2.17 µM (inactive); in experiment [16] it was 6.03 µM (inactive); in experiment [17], 8.38 µM (inactive); in experiment [18], 5.35 µM (inactive). Moreover, the GI50 in experiment [19] is 1.33 µM (inactive).

For the molecule `S=C1NC(c2ccccc2)NC(c2ccccc2)S1` (stereo not given), the GI50 is 74.8 µM (inactive) in [1]; 41.6 µM (inactive) in experiment [2]; > 100 µM (inactive) in experiment [3]; 55 µM (inactive) in experiment [4]; > 100 µM (inactive) in experiment [5]; > 100 µM (inactive) in experiment [6]. Moreover, the GI50 in experiment [7] is > 100 µM (inactive); in experiment [8], 55.5 µM (inactive); in [9], 78.9 µM (inactive); in experiment [10] it was > 100 µM (inactive); in experiment [11] it was > 100 µM (inactive); in experiment [12], > 100 µM (inactive). In addition, the GI50 in experiment [13] is > 100 µM (inactive); in experiment [14] it was > 100 µM (inactive); in [15], 39.4 µM (inactive); in experiment [16], > 100 µM (inactive); in experiment [17] it was > 100 µM (inactive); in experiment [18] it was 28.2 µM (inactive). Also, the GI50 in [19] is > 100 µM (inactive).

Take `C[C@]12CC/C(=N\OCCN3CCCC3)C=C1CCC1C2CC[C@@]2(C)C1CC[C@]2(C)O` (stereo not given in full): the GI50 was 13.1 µM (inactive) in [1]; 3.12 µM (inactive) in [2]; 16.1 µM (inactive) in [3]; 3.35 µM (inactive) in experiment [4]; 5.21 µM (inactive) in experiment [5]; 7.43 µM (inactive) in experiment [6]. Besides, the GI50 is 12.3 µM (inactive) in experiment [7]; 14.7 µM (inactive) in [8]; 4.33 µM (inactive) in [9]; 2.3 µM (inactive) in experiment [10]; 33.3 µM (inactive) in experiment [11]; 7.29 µM (inactive) in [12]. The GI50 is 16.6 µM (inactive) in experiment [13]; 11.5 µM (inactive) in experiment [14]; 7.11 µM (inactive) in experiment [15]; 11.3 µM (inactive) in experiment [16]; 3.4 µM (inactive) in experiment [17]; 5.37 µM (inactive) in experiment [18]. Besides, in experiment [19], the GI50 is 8.39 µM (inactive).

Consider `CN(CCNC(=O)c1nn(-c2ccccc2)c2c1Cc1ccccc1-2)CCNC(=O)c1nn(-c2ccccc2)c2c1Cc1ccccc1-2`, for which the GI50 in [1] was 1.79 µM (inactive); in experiment [2], 1.57 µM (inactive); in experiment [3], 1.82 µM (inactive); in experiment [4], 1.71 µM (inactive); in experiment [5] it was 1.82 µM (inactive); in experiment [6] it was 2.53 µM (inactive). Further, the GI50 in [7] was 2.48 µM (inactive); in experiment [8], 2.14 µM (inactive); in [9], 1.74 µM (inactive); in experiment [10] it was 1.69 µM (inactive); in experiment [11], 2.37 µM (inactive); in experiment [12], 2.19 µM (inactive). For the same molecule, the GI50 in experiment [13] was 1.82 µM (inactive); in experiment [14], 2.06 µM (inactive); in experiment [15] it was 1.71 µM (inactive); in experiment [16] it was 2.59 µM (inactive); in experiment [17], 1.79 µM (inactive); in experiment [18] it was 1.64 µM (inactive). In addition, the GI50 in experiment [19] was 1.68 µM (inactive).

Take `O=C1c2c(F)c(F)c(F)c(F)c2SC2=Nc3cccc4cccc(c34)N12`: the GI50 in experiment [1] was 13.7 µM (inactive); in [2], 2.54 µM (inactive); in experiment [3], 3.49 µM (inactive); in [4], 4.22 µM (inactive); in [5], 3.48 µM (inactive); in [6], 14.9 µM (inactive). Moreover, the GI50 in [7] was 1.56 µM (inactive); in experiment [8], 8.09 µM (inactive); in experiment [9], 2.77 µM (inactive); in experiment [10], 12.1 µM (inactive); in [11] it was 16.1 µM (inactive); in experiment [12] it was 5.68 µM (inactive). The GI50 in experiment [13] was 3.24 µM (inactive); in [14], 18.5 µM (inactive); in [15], 3.78 µM (inactive); in experiment [16], 12.2 µM (inactive); in experiment [17], 9.35 µM (inactive); in [18], 3.78 µM (inactive). Besides, in [19], the GI50 is 3.21 µM (inactive).

For `OC1C=C2C3CN(Cc4cc5c(cc43)OCO5)[C@H]2C[C@@H]1O` (stereo not given in full), the GI50 is 6.84 µM (inactive) in [1]; 7.28 µM (inactive) in experiment [2]; 3.07 µM (inactive) in experiment [3]; 10.6 µM (inactive) in experiment [4]; 7.23 µM (inactive) in experiment [5]; 3.44 µM (inactive) in [6]. For the same molecule, the GI50 in experiment [7] is 1.16 µM (inactive); in experiment [8], 4.62 µM (inactive); in experiment [9] it was 4.06 µM (inactive); in [10], 0.794 µM (active); in experiment [11], 8.39 µM (inactive); in experiment [12], 2.19 µM (inactive). Moreover, the GI50 in experiment [13] was 18.1 µM (inactive); in experiment [14], 3.74 µM (inactive); in [15] it was 4.86 µM (inactive); in experiment [16], 2.64 µM (inactive); in [17], 3.78 µM (inactive); in [18] it was 2.96 µM (inactive). The GI50 in [19] is 7.13 µM (inactive).

Regarding `C1=C(c2ccccc2)C(N2CCOCC2)Oc2ccccc21` (stereo not given), the GI50 was > 100 µM (inactive) in experiment [1]; > 100 µM (inactive) in experiment [2]; > 100 µM (inactive) in experiment [3]; 95.3 µM (inactive) in experiment [4]; > 100 µM (inactive) in [5]; > 100 µM (inactive) in experiment [6]. The GI50 in experiment [7] was > 100 µM (inactive); in [8], > 100 µM (inactive); in [9], > 100 µM (inactive); in experiment [10], 32.5 µM (inactive); in experiment [11], > 100 µM (inactive); in [12], 77.4 µM (inactive). Besides, the GI50 in [13], in [14], in experiment [15], in experiment [16], in experiment [17] and in experiment [18] was > 100 µM (inactive) throughout. For the same molecule, the GI50 in experiment [19] is > 100 µM (inactive).
